# Molecular target: T1, CCR2 receptor (Homo sapiens, UniProt P41597)
# T1 construct: host or cells: THP-1 human monocytic cell line
# T1 sequence (P41597 1-360 isoform P41597-2): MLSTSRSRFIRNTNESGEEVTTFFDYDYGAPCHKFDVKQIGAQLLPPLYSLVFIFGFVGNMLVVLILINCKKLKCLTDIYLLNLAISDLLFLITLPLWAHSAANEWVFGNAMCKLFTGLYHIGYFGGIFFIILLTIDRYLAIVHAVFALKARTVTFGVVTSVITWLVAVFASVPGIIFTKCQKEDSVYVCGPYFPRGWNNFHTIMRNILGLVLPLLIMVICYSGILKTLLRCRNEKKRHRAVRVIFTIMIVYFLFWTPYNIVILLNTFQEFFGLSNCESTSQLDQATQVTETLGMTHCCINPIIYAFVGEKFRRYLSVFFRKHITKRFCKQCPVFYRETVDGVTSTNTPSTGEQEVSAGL
# Experiment: Inhibition of MCP-1 induced Ca-flux in human THP-1 cells
# Type: cell-based
# Conditions: inhibition of specific MCP-1 (10^-7 M hMCP-1) induced Ca2+ flux in human THP-1 cells; pIC50 = -log IC50 (molar)
# Procedure: C. Pharmacological Example Inhibition of MCP-1 Induced Ca-flux in Human THP-1 Cells
# MCP-1 binding to the CCR2 receptor induces a rapid and transient intracellular release of Ca^2+ (secondary messenger) in several cell lines (Charo et al, PNAS 1994). Free Ca^2+ levels can be measured using a Ca^2+ sensitive dye. When the CCR2 receptor is blocked with a CCR2 receptor antagonist, the MCP-1 induced release of Ca^2+ is inhibited.
# Human THP-1 cells (monocytic cell line, ATCC TIB-202) were cultured in RPMI 1640 medium supplemented with 10% fetal calf serum (FCS), 1% L-Glutamine, penicillin (50 U/ml) and streptomycin (50 μg/ml) (all GIBCO BRL, Gent). After centrifugation, cells were loaded for 30 minutes with the Ca^2+ sensitive fluorescent dye Fluo-3 AM (Molecular Probes, Leiden, Netherlands) (2 million cells/ml in RPMI medium containing 4 μM Fluo-3 AM, 20 mM HEPES, 0.1% Bovine Serum Albumin (BSA) and 5 mM probenecid). Excess dye was removed by 3-fold washing with buffer (5 mM HEPES, 140 mM NaCl, 1 mM MgCl2, 5 mM KCl, 10 mM glucose, 2.5 mM probenecid, 1.25 mM CaCl2, 0.1% BSA; all further incubations were done in this buffer). Cells were plated at a density of 150 000 cells/well in dark-wall 96-well plates (Costar, Cambridge, Mass.) and sedimented by centrifugation (1 minute). The cells were pre-incubated for 20 minutes with test compound. Then, 10^−7 M hMCP-1 (Bachem, Bubendorf, Switserland) was added. Changes in intracellular free Ca^2+ concentration were measured using the Fluorescent Imaging Plate Reader (FLIPR, Molecular Devices, Munchen, Germany). Fluorescence was recorded every second from 10 seconds before the addition of the MCP-1 till 2 minutes after the addition (first minute: 60 records with 1 second intervals, second minute 20 records with 3 second intervals).
# The maximal fluorescence obtained during this time frame was used for further calculations.
# Table 4 reports pIC50 values obtained in the above-described test for compounds of formula (I). pIC50 defines −log IC50 wherein IC50 is the molar concentration of the test compound which inhibits 50% of specific MCP-1 induced Ca^2+ flux.
row,IC50 [nM],Structure (SMILES)
1,2480,CCC(c1ccc(F)c(F)c1)n1c(C(=O)NCC(C)C)cnc1S (centres unmarked) [Compound 45]
2,240,CCC(c1ccc(Cl)c(Cl)c1)n1c(C(N)=O)c(COC)[nH]c1=S (centres unmarked) [Compound 113]
3,871,CCC(c1ccc(Cl)c(Cl)c1)n1c(C(=O)NNC(C)=O)c[nH]c1=S (centres unmarked) [Compound 119]
4,331,O=c1[nH][nH]c(=O)c2c1[nH]c(=S)n2C(c1ccc(Cl)c(Cl)c1)C1CC1 (centres unmarked) [Compound 77]
5,305,COCC(c1ccc(Cl)c(Cl)c1)n1c(C(=O)OC)cnc1S (centres unmarked) [Compound 94]
6,8130,CC(c1ccc(Cl)c(Cl)c1)n1cc(C(N)=O)[nH]c1=S (centres unmarked) [Compound 91]
7,4270,CCC(c1cc(F)c(F)c(F)c1)n1c(C(=O)OC)c[nH]c1=S (centres unmarked) [Compound 135]
8,3390,CCC(c1ccc(Br)c(Br)c1)n1c(C(=O)O)c[nH]c1=S (centres unmarked) [Compound 74]
9,2340,CCC(c1ccc(F)c(C(F)(F)F)c1)n1c(C(=O)O)c[nH]c1=S (centres unmarked) [Compound 67]
10,394,CCCC(c1ccc(Cl)c(Cl)c1)n1c(C(=O)NC)c(C(=O)NC)[nH]c1=S (centres unmarked) [Compound 69]
11,891,CCCC(c1cccc(Cl)c1)n1c(C(=O)OC)c[nH]c1=S (centres unmarked) [Compound 24]
12,1150,CCC(c1ccc(Cl)c(Cl)c1)n1c(C(=O)OC)c(C(=O)N2CCOCC2)[nH]c1=S (centres unmarked) [Compound 109]
13,87.1,CC[C@@H](c1ccc(Cl)c(Cl)c1)n1c(C(=O)OC)cnc1S [Compound 17]
14,347,CCOC(=O)c1cnc(S)n1C(CC)c1ccc(F)c(C(F)(F)F)c1 (centres unmarked) [Compound 12]
15,2240,CCC(c1ccc(F)c(F)c1)n1c(C(=O)NC)cnc1S (centres unmarked) [Compound 36]
16,1780,CCC(c1ccc(Cl)c(Cl)c1)n1c(C(=O)N(C)OC)c[nH]c1=S (centres unmarked) [Compound 106]
17,85.7,COCC(c1ccc(Cl)c(Cl)c1)n1c(C(N)=O)c[nH]c1=S (centres unmarked) [Compound 104]
18,4790,COC(=O)c1cnc(S)n1C(C)(C)c1ccc(Cl)c(Cl)c1 [Compound 80]
19,3720,COC(=O)c1c[nH]c(=S)n1C(C)c1ccc(Cl)cc1 (centres unmarked) [Compound 31]
20,468,COC(=O)c1[nH]c(=S)n(C(c2ccc(Cl)c(Cl)c2)c2ccc(Cl)c(Cl)c2)c1C(=O)OC [Compound 150]
21,132,CCC(c1ccc(Cl)c(Cl)c1)n1c(C(C)=O)c[nH]c1=S (centres unmarked) [Compound 81]
22,299,CCC(=O)c1c[nH]c(=S)n1C(CC)c1ccc(Cl)c(Cl)c1 (centres unmarked) [Compound 151]
23,1020,CC[C@H](c1ccc(Cl)c(Cl)c1)n1c(C(=O)OC)cnc1S [Compound 16]
24,130,CCC(c1ccc(Cl)c(Cl)c1)n1c(C(=O)NCCO)c[nH]c1=S (centres unmarked) [Compound 105]

row,IC50 [nM],Structure (SMILES)
1,138,CCCC(c1ccc(Cl)c(Cl)c1)n1c(C(=O)OC)cnc1S (centres unmarked) [Compound 35]
2,204,CCC(c1ccc(F)c(C(F)(F)F)c1)n1c(C(N)=O)cnc1S (centres unmarked) [Compound 10]
3,245,CCC(c1ccc(Cl)c(Cl)c1)n1c(C(=O)NN)c[nH]c1=S (centres unmarked) [Compound 95]
4,203,COC(=O)c1[nH]c(=S)n(C(c2ccccc2)c2ccc(Cl)c(Cl)c2)c1C(=O)OC (centres unmarked) [Compound 56]
5,2040,CC(c1ccc(Cl)c(Cl)c1)n1c(C(N)=O)c(C(N)=O)[nH]c1=S (centres unmarked) [Compound 98]
6,174,CCC(c1ccc(Cl)c(Cl)c1)n1c(S)nc(C(=O)O)c1C#N (centres unmarked) [Compound 88]
7,700,CCC(c1ccc(Cl)c(Cl)c1)n1c(C#N)cnc1S (centres unmarked) [Compound 7]
8,841,CCC(c1ccc(Cl)c(Cl)c1)n1c(S)nc(C(=O)O)c1C(=O)OC (centres unmarked) [Compound 68]
9,9.68,CCC(c1ccc(Cl)c(Cl)c1)n1c(S)nc(C(=O)OC)c1C(=O)OC (centres unmarked) [Compound 37]
10,4680,CCC(c1ccc(Cl)cc1)n1c(C(=O)OC)cnc1S (centres unmarked) [Compound 123]
11,56.9,CCC(c1ccc(Cl)c(Cl)c1)n1c(S)nc(C(N)=O)c1C(N)=O (centres unmarked) [Compound 20]
12,8130,CCC(c1ccc(Cl)c(Cl)c1)n1cc(C(=O)NC)[nH]c1=S (centres unmarked) [Compound 52]
13,1020,CCC(c1ccc(F)c(C(F)(F)F)c1)n1c(C(=O)OCC(=O)N(CC)CC)c[nH]c1=S (centres unmarked) [Compound 62]
14,112,CCC(c1ccc(Cl)c(Cl)c1)n1c(C(=O)OC)c(C(=O)NCCO)[nH]c1=S (centres unmarked) [Compound 110]
15,1780,CCC(c1ccc(Cl)c(Cl)c1)n1cc(C(N)=O)[nH]c1=S (centres unmarked) [Compound 51]
16,257,CCC(c1ccc(Br)c(Br)c1)n1c(C(=O)OC)cnc1S (centres unmarked) [Compound 76]
17,32.4,CCCC(c1ccc(Cl)c(Cl)c1)n1c(C(=O)OC)c(C(N)=O)[nH]c1=S (centres unmarked) [Compound 149]
18,166,CCC(c1cc(F)c(F)c(F)c1)n1c(C(N)=O)c[nH]c1=S (centres unmarked) [Compound 143]
19,2140,COC(=O)c1c[nH]c(=S)n1C(c1ccc(Cl)c(Cl)c1)C1CC1 (centres unmarked) [Compound 2]
20,1380,CCC(c1ccc(Cl)c(Cl)c1)n1c(C(=O)O)c(C(=O)O)[nH]c1=S (centres unmarked) [Compound 40]
21,120,CCC(c1ccc(Cl)c(Cl)c1)n1c(S)nc(C(N)=O)c1C#N (centres unmarked) [Compound 19]
22,35,CCC(c1ccc(Cl)c(Cl)c1)n1c(C(N)=O)cnc1S (centres unmarked) [Compound 8]
23,2290,CCC(c1ccc(F)c(C(F)(F)F)c1)n1c(C(=O)NC)c[nH]c1=S (centres unmarked) [Compound 49]

row,Structure (SMILES),IC50 [nM]
1,CCC(c1cc(Cl)cc(Cl)c1)n1c(C(=O)OC)c(C(=O)OC)[nH]c1=S (centres unmarked) [Compound 130],1660
2,CCC(c1ccc(Cl)c(Cl)c1)n1c(C(=O)O)cnc1S (centres unmarked) [Compound 23],3310
3,CCC(c1ccc(C(F)(F)F)c(F)c1)n1c(C(=O)OC)cnc1S (centres unmarked) [Compound 43],2000
4,CCC(c1ccc(Cl)c(Cl)c1)n1c(C(=O)OC)c(C)[nH]c1=S (centres unmarked) [Compound 6],263
5,CCC(c1ccc(C(F)(F)F)c(F)c1)n1c(S)nc(C(=O)OC)c1C(=O)OC (centres unmarked) [Compound 48],89.1
6,COCC(c1ccc(Cl)c(Cl)c1)n1c(C(=O)OC)c(C(=O)OC)[nH]c1=S (centres unmarked) [Compound 100],32.4
7,CCC(c1ccc(F)c(C(F)(F)F)c1)n1c(C(=O)OC)cnc1S (centres unmarked) [Compound 1],933
8,CCC(c1cc(F)c(F)c(F)c1)n1c(C(=O)OC)c(C(=O)OC)[nH]c1=S (centres unmarked) [Compound 148],33.5
9,CCC(c1ccc(Cl)c(Cl)c1)n1c(S)nc(COC)c1C(=O)OC (centres unmarked) [Compound 89],107
10,CCC(c1ccc(Cl)c(Cl)c1)n1cc(C(=O)OC)nc1S (centres unmarked) [Compound 14],355
11,CCC(c1ccc(Cl)c(Cl)c1)n1c(S)nc(C(=O)NC)c1C(=O)OC (centres unmarked) [Compound 87],33.1
12,CCC(c1ccc(F)c(F)c1)n1c(C(=O)OC)c(C(N)=O)[nH]c1=S (centres unmarked) [Compound 142],58.9
13,COC(=O)c1[nH]c(=S)n(C(c2ccc(Cl)c(Cl)c2)C2CCCCC2)c1C(=O)OC (centres unmarked) [Compound 73],440
14,CCC(c1ccc(Cl)c(Cl)c1)n1c(C(=O)OC(C)C)cnc1S (centres unmarked) [Compound 33],263
15,CCOC(=O)c1c(C)[nH]c(=S)n1C(CC)c1ccc(Cl)c(Cl)c1 (centres unmarked) [Compound 75],263
16,CCC(c1cc(F)cc(F)c1)n1c(C(=O)OC)c(C(=O)OC)[nH]c1=S (centres unmarked) [Compound 124],64.6
17,CCC(c1ccc(Cl)c(Cl)c1)n1c(S)nc(CO)c1C(=O)OC (centres unmarked) [Compound 85],153
18,COC(=O)c1cnc(S)n1C(C)c1ccc(Cl)c(Cl)c1 (centres unmarked) [Compound 32],257

# From patent publication US7511068B2, “Mercaptoimidazoles as CCR2 receptor antagonists” (Janssen Pharmaceutica, N.V., priority 2003, dated 2009)
